Experimental data from patent US5071965A, “Novel TC-99M complexes” (Mallinckrodt Medical, Inc., priority 1989, dated 1991).

Test: Biodistribution of Tc-99m complexes in guinea pigs (heart uptake, heart/blood)
Details: 5 minutes, Tc-99m complex
Description: The procedures used for determining biodistribution are as follows.
Guinea Pigs--The guinea pigs are anesthetized and the technetium complex is injected into the jugular vein after a cutdown. The animals are sacrificed after 5 minutes and the organs removed and counted as with the rats.
For guinea pigs, significant heart uptake is determined if the percentage of technetium in the heart is greater than 0.5% and the heart/blood ratio is greater than 1.

| Guinea Pig Heart/Blood Ratio | Compound |
| --- | --- |
| 18 | Cc1ccc(O)c(C=NCC(C)(CN=Cc2cc(C)ccc2O)CN=Cc2cc(C)ccc2O)c1 (stereo not shown) [R5=H, R6=H, R7=CH3, R8=H, R3=H, R4=CH3] |
| 16 | COc1ccc(C=NCC(C)(CN=Cc2ccc(OC)cc2O)CN=Cc2ccc(OC)cc2O)c(O)c1 (stereo not shown) [R5=H, R6=OCH3, R7=H, R8=H, R3=H, R4=CH3, 3-Methoxyphenol, 6,6'-[[2-[[[(4-methoxy-2-hydroxyphenyl)methylene]amino]methyl]-2-methyl-1,3-propanediyl]bis(nitrilomethylidyne)]bis-] |

| Compound | Guinea Pig Heart/Blood Ratio |
| --- | --- |
| CCCOCC(CN=Cc1ccccc1O)(CN=Cc1ccccc1O)CN=Cc1ccccc1O (stereo not shown) [phenol, 2,2'-[[2-[[[(2-hydroxyphenyl)methylene]amino]methyl]-2-propoxymethyl-1,3-propanediyl]bis(nitrilomethylidyne)]bis-] | 18 |

Same assay, conditions: complex made from the reduced ligand

| guinea pig biodistributions, compared with the complex of Example 95 | Compound |
| --- | --- |
| identical | CCCOCC(CNCc1ccccc1O)(CNCc1ccccc1O)CNCc1ccccc1O [Example 96, 1,1,1-tris(2-hydroxyphenylmethylaminomethyl)-2-propoxyethane] |

Same assay, conditions: jugular vein injection, 5 minutes, Tc-99m complex

| 5 Minute Guinea Pig % HT Uptake | Compound |
| --- | --- |
| 0.50% | CCOc1cccc(C=NCC(C)(CN=Cc2cccc(OCC)c2O)CN=Cc2cccc(OCC)c2O)c1O (stereo not shown) [2-ethoxyphenol, 6,6'-[[2-[[[(3-ethoxy-2-hydroxyphenyl)methylene]amino]methyl]-2-methyl-1,3-propanediyl]bis(nitrilomethylidyne)]bis-] |
| 1.66% | COCCCCC(CN=Cc1ccccc1O)(CN=Cc1ccccc1O)CN=Cc1ccccc1O (stereo not shown) |
| 1.55% | CCC(C)OCC(CN=Cc1ccccc1O)(CN=Cc1ccccc1O)CN=Cc1ccccc1O (stereo not shown) [Phenol, 2,2'-[[2-[[[(2-hydroxyphenyl)methylene]amino]methyl]-(1-methylpropoxy)methyl-1,3-propanediyl]bis(nitrilomethylidyne)]bis-] |
| 1.82% | Cc1ccc(O)c(C=NCC(C)(CN=Cc2cc(C)ccc2O)CN=Cc2cc(C)ccc2O)c1 (stereo not shown) [R5=H, R6=H, R7=CH3, R8=H, R3=H, R4=CH3] |
| 1.72% | CC(C)COCC(CN=Cc1ccccc1O)(CN=Cc1ccccc1O)CN=Cc1ccccc1O (stereo not shown) [Phenol, 2,2'-[[2-[[[(2-hydroxyphenyl)methylene]amino]methyl]-2-(2-methylpropoxy)methyl-1,3-propandiyl]bis(nitrilomethylidyne)]-] |
| 1.14% | Oc1ccc(F)cc1C=NCC(CN=Cc1cc(F)ccc1O)(CN=Cc1cc(F)ccc1O)COCc1ccccc1 (stereo not shown) [4-fluorophenol, 2,2'-[[2-[[[(5-fluoro-2-hydroxyphenyl)methylene]amino]methyl]-2-phenylmethoxymethyl-1,3-propanediyl]bis(nitrilomethylidyne)]bis-] |
| 1.30% | CC(CN=Cc1cc(F)ccc1O)(CN=Cc1cc(F)ccc1O)CN=Cc1cc(F)ccc1O (stereo not shown) [R5=H, R6=H, R7=F, R8=H, R3=H, R4=CH3] |
| 1.04% | COc1ccc(COCC(CN=Cc2c(O)cc(OC)c(OC)c2OC)(CN=Cc2c(O)cc(OC)c(OC)c2OC)CN=Cc2c(O)cc(OC)c(OC)c2OC)cc1 (stereo not shown) [3,4,5-trimethoxyphenol, 2,2'-[[2-[[[(4,5,6-trimethoxy-2-hydroxyphenyl)methylene]amino]methyl]-2-(4-methoxyphenyl)methoxymethyl-1,3-propranediyl]bis(nitrilomethylidyne)]bis-] |
| 1.57% | COc1cc(O)c(C=NCC(C)(CN=Cc2c(O)cc(OC)c(OC)c2OC)CN=Cc2c(O)cc(OC)c(OC)c2OC)c(OC)c1OC (stereo not shown) [3,4,5-trimethoxyphenol, 2,2'-[[2-[[[(4,5,6-trimethoxy-2-hydroxyphenyl)methylene]amino]methyl]-2-methyl-1,3-propanediyl]bis(nitrilomethylidyne)]bis-] |
| 0.47% | CCc1cccc(C=NCC(C)(CN=Cc2cccc(CC)c2O)CN=Cc2cccc(CC)c2O)c1O (stereo not shown) [2-ethylphenol, 6,6'-[[2-[[[3-ethyl-2-hydroxyphenyl)methylene]amino]methyl]2-methyl-1,3-propanediyl]bis(nitrilomethylidyne)]bis-] |
| 0.60% | COc1cc(O)c(C=NCC(CN=Cc2c(O)cc(OC)c(OC)c2OC)(CN=Cc2c(O)cc(OC)c(OC)c2OC)COCc2ccccc2)c(OC)c1OC (stereo not shown) [3,4,5-trimethoxyphenol, 2,2'-[[2-[[[(4,5,6-trimethoxy-2-hydroxyphenyl)methylene]amino]methyl]-2-phenylmethoxymethyl-1,3-propanediyl]bis(nitrilomethylidyne)]bis-] |
| 0.87% | CCCOCC(CN=Cc1ccc(OC)cc1O)(CN=Cc1ccc(OC)cc1O)CN=Cc1ccc(OC)cc1O (stereo not shown) |
| 1.55% | COc1cccc(O)c1C=NCC(C)(CN=Cc1c(O)cccc1OC)CN=Cc1c(O)cccc1OC (stereo not shown) [R5=H, R6=H, R7=H, R8=OCH3, R3=H, R4=CH3, 3-Methoxyphenol, 2,2'-[[2-[[[(6-methoxy-2-hydroxyphenyl)methylene]amino]methyl]-2-methyl-1,3-propanediyl]bis(nitrilomethylidyne)]bis-] |
| 1.22% | CCCCCOCC(CN=Cc1ccccc1O)(CN=Cc1ccccc1O)CN=Cc1ccccc1O (stereo not shown) [Phenol, 2,2'-[[2-[[[(2-hydroxyphenyl)methylene]amino]methyl]-2-pentyloxymethyl-1,3-propandiyl]bis(nitrilomethylidyne)]bis-] |
| 1.07% | COc1c(C)cc(O)c(C=NCC(C)(CN=Cc2c(O)cc(C)c(OC)c2C)CN=Cc2c(O)cc(C)c(OC)c2C)c1C (stereo not shown) [3,5-dimethyl-4-methoxyphenol, 2,2'-[[2-[[[(4,6-dimethyl-5-methoxy-2-hydroxyphenyl)methylene]amino]methyl]-2-methyl-1,3-propanediyl]bis(nitrilomethylidyne)]bis-] |
| 1.72% | CSc1ccc(C=NCC(C)(CN=Cc2ccc(SC)cc2O)CN=Cc2ccc(SC)cc2O)c(O)c1 (stereo not shown) [R5=H, R6=SCH3, R7=H, R8=H, R3=H, R4=CH3, 3-Methylthiophenol, 6,6'-[[2-[[[(4-methylthio-2-hydroxyphenyl)methylene]amino]methyl]-2-methyl-1,3-propanediyl]bis(nitrilomethylidyne)]bis-] |
| 0.86% | COCC(CN=Cc1c(O)cc(OC)c(OC)c1OC)(CN=Cc1c(O)cc(OC)c(OC)c1OC)CN=Cc1c(O)cc(OC)c(OC)c1OC (stereo not shown) [3,4,5-trimethoxyphenol, 2,2'-[[2-[[[(4,5,6-trimethoxy-2-hydroxyphenyl)methylene]amino]methyl]-2-methoxymethyl-1,3-propanediyl]bis(nitrilomethylidyne)]bis-] |
| 1.24% | COc1c(O)c(C=NCC(C)(CN=Cc2c(O)c(OC)c(OC)c(OC)c2OC)CN=Cc2c(O)c(OC)c(OC)c(OC)c2OC)c(OC)c(OC)c1OC (stereo not shown) [2,3,4,5-tetramethoxyphenol, 6,6'-[[2-[[[(3,4,5,6-tetramethoxy-2-hydroxyphenyl)methylene]amino]methyl]-2-methyl-1,3-propanediyl]bis(nitrilomethylidyne)]bis-] |
| 1.19% | CCCCCCOCC(CN=Cc1ccccc1O)(CN=Cc1ccccc1O)CN=Cc1ccccc1O (stereo not shown) [phenol, 2,2,'-[[2-[[[(2-hydroxyphenyl)methylene]amino]methyl]-2-hexyloxymethyl-1,3-propanediyl]bis(nitrilomethylidyne)]bis-] |
| 2.11% | COc1ccc(C=NCC(C)(CN=Cc2ccc(OC)cc2O)CN=Cc2ccc(OC)cc2O)c(O)c1 (stereo not shown) [R5=H, R6=OCH3, R7=H, R8=H, R3=H, R4=CH3, 3-Methoxyphenol, 6,6'-[[2-[[[(4-methoxy-2-hydroxyphenyl)methylene]amino]methyl]-2-methyl-1,3-propanediyl]bis(nitrilomethylidyne)]bis-] |
| 1.51% | Cc1ccc(C=NCC(C)(CN=Cc2ccc(C)cc2O)CN=Cc2ccc(C)cc2O)c(O)c1 (stereo not shown) [R5=H, R6=CH3, R7=H, R8=H, R3=H, R4=CH3, 3-Methylphenol, 6,6'-[[2-[[[(4-methyl-2-hydroxyphenyl)methylene]amino]methyl]-2-methyl-1,3-propanediyl]bis(nitrilomethylidyne)]bis-] |

| Compound | 5 Minute Guinea Pig % HT Uptake |
| --- | --- |
| COc1cc(O)c(C=NCC(C)(CN=Cc2c(O)cc(OC)c(C)c2OC)CN=Cc2c(O)cc(OC)c(C)c2OC)c(OC)c1C (stereo not shown) [3,5-dimethoxy-4-methyl-phenol, 2,2'-[[2-[[[(4,6-dimethoxy-5-methyl-2-hydroxyphenyl)methylene]amino]methyl]-2-methyl-1,3-propanediyl]bis(nitrilomethylidyne)]bis-] | 0.84% |
| C=CCOCC(CN=Cc1ccccc1O)(CN=Cc1ccccc1O)CN=Cc1ccccc1O (stereo not shown) [phenol, 2,2'-[[2-[[[(2-hydroxyphenyl)methylene]amino]methyl]-2-propenyloxymethyl-1,3-propanediyl]bis(nitrilomethylidyne)]bis-] | 1.09% |
| CCCCOCC(CN=Cc1ccccc1O)(CN=Cc1ccccc1O)CN=Cc1ccccc1O (stereo not shown) [Phenol, 2,2'[[-[[[(2-hydroxyphenyl)methylene]amino]methyl]-2-butoxymethyl-1,3-propandiyl]bis(nitrilomethylidyne)]bis-] | 1.463% |
| CCC(=NCC(C)(CN=C(CC)c1ccccc1O)CN=C(CC)c1ccccc1O)c1ccccc1O (stereo not shown) [phenol, 2,2'-[[2-[[[(2-hydroxyphenyl)propylene]amino]methyl]-2-methyl-1,3-propanediyl]bis(nitrilopropylidyne)]bis-] | 0.76% |
| Oc1ccccc1C=NCC(CN=Cc1ccccc1O)CN=Cc1ccccc1O (stereo not shown) [R5=H, R6=H, R7=H, R8=H, R3=H, R4=H, phenol, 2,2'-[[2-[[[ (2-hydroxyphenyl)methylene]amino]methyl]-1,3-propanediyl]bis(nitrilomethylidyne)]bis-] | 1.29% |
| CC(CN=Cc1cc(C(F)(F)F)ccc1O)(CN=Cc1cc(C(F)(F)F)ccc1O)CN=Cc1cc(C(F)(F)F)ccc1O (stereo not shown) [R5=H, R6=H, R7=CF3, R8=H, R3=H, R4=CH3] | 0.51% |
| CCCCCCCC(=O)OCC(CN=Cc1ccccc1O)(CN=Cc1ccccc1O)CN=Cc1ccccc1O (stereo not shown) [phenol, 2,2'-[[2-[[[(2-hydroxypheny)methylene]amino]methyl]-2-octanoyloxymethyl-1,3-propanediyl]bis(nitrilomethylidyne)]bis-] | 0.88% |
| CCCOCC(CN=Cc1ccccc1O)(CN=Cc1ccccc1O)CN=Cc1ccccc1O (stereo not shown) [phenol, 2,2'-[[2-[[[(2-hydroxyphenyl)methylene]amino]methyl]-2-propoxymethyl-1,3-propanediyl]bis(nitrilomethylidyne)]bis-] | 1.48% |
| COCC(CN=Cc1ccccc1O)(CN=Cc1ccccc1O)CN=Cc1ccccc1O (stereo not shown) [phenol, 2,2'-[[2-[[[(2-hydroxyphenyl)methylene]amino]methyl]-2-methoxymethyl-1,3-propanediyl]bis(nitrilomethylidyne)]bis-] | 1.44% |
